Earlier results, collected in patent US6613244B2, “Ironing aid composition” (Unilever Home & Personal Care USA, division of Conopco, Inc., priority 2000, dated 2003).

Settings: stated in words, related to ClogP

SMILES: CC(=O)OC(c1ccccc1)C(Cl)(Cl)Cl (stereo not shown) [rose acetate]
- solubility in water: not easily soluble in water
